# Test results published in patent US10034886B2, “GLP-1 receptor modulators” (Celgene International II SÀRL, priority 2014, dated 2018).
# Target: T1, GLP-1R (Homo sapiens, UniProt P43220)
# T1 construct: host or cells: GLP-1R CRE-bla CHO-K1 cells
# Assay: EC20 GLP-1(9-36) PAM cAMP assay: dose response of compound in the presence of fixed concentration of GLP-1(9-36)
# Type: cell-based
# Conditions: GLP-1R CRE-bla CHO-K1 cells, compound dose response with fixed concentration of GLP-1(9-36), read-out: EC20 GLP-1(9-36) PAM EC50
# Summary of the method: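 GLP-1R CRE-bla CHO-K1 cells treated 30 min at 37 °C with 12-point compound dose response plus fixed EC20 GLP-1(9-36), with IBMX, in HBSS/HEPES/0.1% BSA pH 7.4. Total cAMP measured by luminescent detection against standard curve; EC50 and Emax from non-linear regression.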
# T1 sequence (P43220 24-463): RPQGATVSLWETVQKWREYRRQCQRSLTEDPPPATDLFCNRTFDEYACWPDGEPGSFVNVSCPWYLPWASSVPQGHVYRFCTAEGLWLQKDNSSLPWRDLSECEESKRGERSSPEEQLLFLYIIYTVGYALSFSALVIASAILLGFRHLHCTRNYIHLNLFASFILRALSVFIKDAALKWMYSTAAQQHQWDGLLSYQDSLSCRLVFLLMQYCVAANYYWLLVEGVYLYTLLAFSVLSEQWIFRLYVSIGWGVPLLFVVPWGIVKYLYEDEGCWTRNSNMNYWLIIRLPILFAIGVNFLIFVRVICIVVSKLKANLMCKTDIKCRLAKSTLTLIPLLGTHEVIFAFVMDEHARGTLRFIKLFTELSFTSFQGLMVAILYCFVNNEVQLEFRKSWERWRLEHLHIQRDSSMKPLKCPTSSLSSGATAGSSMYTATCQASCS
# T1 sequence (P01275 100-127 partner limits assumed): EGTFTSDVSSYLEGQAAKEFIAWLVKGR
row,SMILES,EC50 [µM]
1,CCC[C@H]1CC[C@H](C2CCN(c3cnc(-c4ccc(C[C@H](NC(=O)c5ccc(C(C)(C)C)s5)C(=O)N5CC(C)(C(=O)O)C5)cc4)nc3)CC2)CC1 [Compound 1450],< 0.8
2,CCC[C@H]1CC[C@H](C2CCN(c3cnc(-c4ccc(C[C@H](NC(=O)c5ccc(C(C)(C)C)s5)C(=O)N[C@H](Cc5c[nH]cn5)C(=O)O)cc4)nc3)CC2)CC1 [Compound 1446],< 0.8
3,CCC[C@H]1CC[C@H](C2CCN(c3cnc(-c4ccc(C[C@H](NC(=O)c5ccc(C6CC6)s5)C(=O)N5CC(C(=O)O)C5)cc4)nc3)CC2)CC1 [Compound 1515],< 0.8
4,CCCCOc1ccc(C(=O)N[C@@H](Cc2ccc(-c3ncc(-c4ccc(OCCCC(C)C)cc4)cn3)cc2)C(=O)N2CC(C(=O)O)C2)cc1 [Compound 1243],0.8 to 2.5
5,CCC[C@H]1CC[C@H](C2CCN(c3cnc(-c4ccc(C[C@H](NC(=O)c5cnc(C(C)(C)C)nc5)C(=O)N5CC(C(=O)O)C5)cc4)nc3)CC2)CC1 [Compound 1514],< 0.8
6,CC(C)CCCOc1ccc(-c2cnc(-c3ccc(C[C@H](NC(=O)c4ccc(C5CC5)cc4)C(=O)N4CC(C(=O)O)C4)cc3)nc2)cc1 [Compound 1233],0.8 to 2.5
7,CCC[C@H]1CC[C@H](C2CCN(c3cnc(-c4ccc(C[C@H](NC(=O)c5ccc(C(C)(C)C#N)cc5)C(=O)N5CC(C(=O)O)C5)cc4)nc3)CC2)CC1 [Compound 1526],< 0.8
8,CC[C@H]1CC[C@H](c2ccc(-c3cnc(-c4ccc(C[C@H](NC(=O)c5ccc(C(C)=O)cc5)C(=O)O)cc4)nc3)cc2)CC1 [Compound 1376],0.8 to 2.5
9,CC1(C)CCC(C2CCN(c3cnc(-c4ccc(C[C@H](NC(=O)c5ccc(C(C)(C)C)s5)C(=O)N5CC(C(=O)O)C5)cc4)nc3)CC2)CC1 [Compound 1424],< 0.8

# Results, then the compound that gave them:
row,EC50 [µM],SMILES
1,< 0.8,CC(C)(C)c1ccc(C(=O)N[C@@H](Cc2ccc(-c3ncc(-c4ccc(-c5ccc(C(F)(F)F)cc5)cc4F)cn3)cc2)C(=O)N2CC(C(=O)O)C2)s1 [Compound 1218]
2,2.5 to 5,Cc1ccc(S(=O)(=O)N2CC=C(c3cnc(-c4ccc(C[C@H](NC(=O)c5ccc(C(C)(C)C)s5)C(=O)N[C@H](C)C(=O)O)cc4)nc3)CC2)cc1 [Compound 1338]
3,< 0.8,CC(C)(C)c1ccc(C(=O)N[C@@H](Cc2ccc(-c3ncc(-c4ccc(-c5ccc(C(F)(F)F)c(F)c5F)cc4F)cn3)cc2)C(=O)N2CC(C(=O)O)C2)s1 [Compound 1216]
4,5 to 10,C[C@@H](NC(=O)[C@H](Cc1ccc(-c2ncc(-c3ccc(SC4CC4)cc3)cn2)cc1)NC(=O)c1ccc(C(C)(C)C)s1)C(=O)O [Compound 1301]
5,< 0.8,CCCCCCCOc1ccc(-c2cnc(-c3ccc(C[C@H](NC(=O)c4ccc(C(C)(C)C)s4)C(=O)N4CC(CN)(C(=O)O)C4)cc3)nc2)cc1 [Compound 1280]
6,< 0.8,CCCc1ccc(-c2ccc(-c3cnc(-c4ccc(C[C@H](NC(=O)c5ccc(CC(C)C)cc5)C(=O)N5CC(C(=O)O)C5)cc4)nc3)c(F)c2)cc1 [Compound 1407]
7,2.5 to 5,CC(C)(C)c1ccc(C(=O)N[C@@H](Cc2ccc(-c3ncc(-c4ccc(-c5ccccc5)c(F)c4)cn3)cc2)C(=O)O)s1 [Compound 1351]
8,< 0.8,C[C@@H](NC(=O)[C@H](Cc1ccc(-c2ncc(-c3ccc(-c4ccccc4)cc3F)cn2)cc1)NC(=O)c1ccc(C(C)(C)C)s1)C(=O)O [Compound 1318]
9,2.5 to 5,C[C@@H](NC(=O)[C@H](Cc1ccc(-c2ncc(-c3ccc4c(c3)C(=O)c3ccccc3-4)cn2)cc1)NC(=O)c1ccc(C(C)(C)C)s1)C(=O)O [Compound 1290]

# Same assay, conditions: dose response of compound in presence of fixed concentration of GLP-1(9-36), GLP-1R CRE-bla CHO-K1 cells, read-out: EC20 GLP-1(9-36) PAM EC50
row,SMILES,EC50 [µM]
1,CCCOc1ccc(-c2cnc(-c3ccc(C[C@H](NC(=O)c4ccc(C(C)(C)C)cc4)C(=O)N[C@H](C)C(=O)O)cc3)nc2)cc1 [Compound 722],0.8 to 2.5
2,CCCCCCCOc1ccc(-c2cnc(-c3ccc(C[C@H](NC(=O)c4ccc(C(C)(C)C)s4)C(=O)N4CCC[C@H]4C(=O)NS(C)(=O)=O)cc3)nc2)cc1 [Compound 495],< 0.8
3,CCCCCCCOc1ccc(-c2cnc(-c3ccc(C[C@H](NC(=O)c4ccc(CC(C)C)s4)C(=O)N4CC[C@H](C(=O)O)C4)cc3)nc2)cc1 [Compound 847],2.5 to 5
4,CC(C)CCOc1ccc(-c2cnc(-c3ccc(C[C@H](NC(=O)c4ccc(C(C)(C)C)s4)C(=O)NC(C(=O)O)C(O)c4ccccc4)cc3)nc2)cc1 (stereo partly shown) [Compound 942],2.5 to 5
5,CCCCCCCOc1ccc(-c2cnc(-c3ccc(C[C@H](NC(=O)c4ccc(C(C)(C)C)s4)C(=O)NC(C(=O)O)C(O)c4ccc(Cl)cc4)cc3)nc2)cc1 (stereo partly shown) [Compound 901],0.8 to 2.5
6,CCCCCCCOc1ccc(-c2cnc(-c3ccc(C[C@H](NC(=O)c4ccc(C(C)(C)C)cc4)C(=O)N[C@@H](CN)C(=O)O)cc3)nc2)cc1 [Compound 452],2.5 to 5
7,CCCCCCOCC1CCN(c2cnc(-c3ccc(C[C@H](NC(=O)c4ccc(C(C)(C)C)cc4)C(=O)NCCC(=O)O)cc3)nc2)CC1 [Compound 693],5 to 10
8,CCCCCCCOc1ccc(-c2cnc(-c3ccc(C[C@H](NC(=O)c4ccc(OCC)cc4)C(=O)N[C@H](C)C(=O)O)cc3)nc2)cc1 [Compound 818],0.8 to 2.5
9,CCCCCCCOc1ccc(-c2cnc(-c3ccc(C[C@H](NC(=O)c4ccc(C(C)(C)C)cc4)C(=O)N[C@@H](CC(=O)N(C)C)C(=O)O)cc3)nc2)cc1 [Compound 478],< 0.8
10,CCCCCCCOc1ccc(-c2cnc(-c3ccc(C[C@H](NC(=O)c4ccc(C(C)(C)C)cc4)C(=O)NCC(=O)NCCC(=O)O)cc3)nc2)cc1 [Compound 445],< 0.8
11,CC(C)CCCCOc1ccc(-c2cnc(-c3ccc(C[C@H](NC(=O)c4ccc(C(C)(C)C)s4)C(=O)NC(C(=O)O)C(O)c4ccccc4)cc3)nc2)cc1 (stereo partly shown) [Compound 923],0.8 to 2.5
12,CCCCCCCOc1ccc(-c2cnc(-c3ccc(C[C@H](NC(=O)c4ccc(C(C)(C)C)cc4)C(=O)NCCC(=O)O)cc3)nc2)cc1CC [Compound 703],< 0.8
13,CCCCCCCOc1ccc(-c2cnc(-c3ccc(C[C@H](NC(=O)c4ccc(C(C)(C)C)cc4)C(=O)N4CCC[C@H]4C(=O)O)cc3)nc2)cc1 [Compound 660],0.8 to 2.5
14,CCCCCCCOc1ccc(-c2cnc(-c3ccc(C[C@H](NC(=O)c4ccc(C(C)(C)C)cc4)C(=O)NC(CCC)C(=O)O)cc3)nc2)cc1 (stereo partly shown) [Compound 562],< 0.8
15,CCCCCCCOc1ccc(-c2cnc(-c3ccc(C[C@H](NC(=O)c4ccc(C(C)(C)C)s4)C(=O)N[C@@H](CN)C(=O)O)cc3)nc2)cc1 [Compound 394],2.5 to 5
16,CCCCCCCOc1ccc(-c2cnc(-c3ccc(C[C@H](NC(=O)c4ccc(C(C)(C)C)cc4)C(=O)N4CC[C@H](N)[C@@H](C(=O)O)C4)cc3)nc2)cc1 [Compound 582],0.8 to 2.5
17,CCCCCCCOc1ccc(-c2cnc(-c3ccc(C[C@H](NC(=O)Cc4ccc(OCCCC)cc4)C(=O)N4CC[C@H](C(=O)O)C4)cc3)nc2)cc1 [Compound 1095],2.5 to 5
18,CCCCCCCOc1ccc(-c2cnc(-c3ccc(C[C@H](NC(=O)c4ccc(C(C)(C)C)cc4)C(=O)NC(C(=O)O)c4ccc(C(F)(F)F)cc4)cc3)nc2)cc1 (stereo partly shown) [Compound 453],0.8 to 2.5
19,CCCCCCCOc1ccc(-c2cnc(-c3ccc(C[C@H](NC(=O)c4cnc(C(C)(C)C)nc4)C(=O)N[C@H](C)C(=O)O)cc3)nc2)cc1 [Compound 832],2.5 to 5
20,CCCCCCCc1ccc(-c2cnc(-c3ccc(C[C@H](NC(=O)c4ccc(C(C)(C)C)s4)C(=O)N[C@H](C)C(=O)O)cc3)nc2)cc1 [Compound 737],< 0.8
21,CCCCCCCOc1ccc(-c2cnc(-c3ccc(C[C@H](NC(=O)c4ccc(C(C)(C)C)cc4)C(=O)N4CC=CC4C(=O)O)cc3)nc2)cc1 (stereo partly shown) [Compound 563],< 0.8

# Further lines, results first:
row,EC50 [µM],SMILES
1,5 to 10,CSc1cccc(-c2cnc(-c3ccc(C[C@H](NC(=O)c4ccc(C(C)(C)C)s4)C(=O)N[C@H](C)C(=O)O)cc3)nc2)c1 [Compound 995]
2,< 0.8,Cc1ccc(-c2ccc(-c3cnc(-c4ccc(C[C@H](NC(=O)c5ccc(C(C)(C)C)s5)C(=O)N[C@H](C)C(=O)O)cc4)nc3)cc2F)cc1 [Compound 1139]
3,2.5 to 5,CC(C)(C)COc1ccc(-c2cnc(-c3ccc(C[C@H](NC(=O)c4ccc(C(C)(C)C)s4)C(=O)N4CC[C@H](C(=O)O)C4)cc3)nc2)cc1 [Compound 767]
4,2.5 to 5,CCCCCCCOc1ccc(-c2cnc(-c3ccc(C[C@H](NC(=O)c4ccc(C(C)(C)C)s4)C(=O)N4CC(C(=O)O)C(C)(C)C4)cc3)nc2)cc1 (stereo partly shown) [Compound 638]
5,< 0.8,C[C@@H](NC(=O)[C@H](Cc1ccc(-c2ncc(-c3ccc(-c4ccc(OC(F)(F)F)cc4)cc3F)cn2)cc1)NC(=O)c1ccc(C(C)(C)C)s1)C(=O)O [Compound 1171]
6,0.8 to 2.5,CCCCCCCOc1ccc(-c2cnc(-c3ccc(C[C@H](NC(=O)c4ccc(C(C)(C)C)s4)C(=O)N4C(C(=O)O)CCC4C(=O)O)cc3)nc2)cc1 (stereo partly shown) [Compound 614]
7,2.5 to 5,CC(C)(C)c1ccc(C(=O)N[C@@H](Cc2ccc(-c3ncc(-c4ccc(OC(F)(F)F)cc4)cn3)cc2)C(=O)NC(C(=O)O)C(O)c2ccccc2)s1 (stereo partly shown) [Compound 927]
8,< 0.8,CCCCCCCOc1ccc(-c2cnc(-c3ccc(C[C@H](NC(=O)c4ccc(C(C)(C)C)s4)C(=O)NC4CC(C(=O)O)C4)cc3)nc2)cc1 (stereo partly shown) [Compound 602]
9,5 to 10,Cc1cccc(Oc2ccc(-c3cnc(-c4ccc(C[C@H](NC(=O)c5ccc(C(C)(C)C)s5)C(=O)N[C@H](C)C(=O)O)cc4)nc3)cn2)c1 [Compound 1016]
10,0.8 to 2.5,"CC(C)CCCOc1ccc(-c2cnc(-c3ccc(C[C@H](NC(=O)c4ccc(C(C)(C)C)s4)C(=O)N4CC(C(=O)O)C4)cc3)nc2)cc1 [Compound 798, (S)-1-(2-(5-(tert-butyl)thiophene-2-carboxamido)-3-(4-(5-(4-((4-methylpentyl)oxy)phenyl)-pyrimidin-2-yl)phenyl)propanoyl)azetidine-3-carboxylic acid]"
